Ends that are not written are not given here.
Tests used:
[1] = tested on: amyloid proteins (hen lysozyme (hLys), human full-length alpha synuclein, human tau P301S); assay: fluorometric assay of binding to amyloid proteins; details: 30 μM reporter solution in PBS; excitation 450 nm, emission 460-680 nm; compared to amyloid-free control
Experimental: The binding of BDB to various amyloid proteins was evaluated in vitro using a fluorometric assay.
The amyloid proteins (hen lysozyme (hLys), human full-length alpha synuclein, and human tau P301S) were individually prepared for use in the fluorometric assay. hLys (Sigma) was dissolved in 136.8 mM NaCl, 2.68 mM KCl, 0.01% w/v NaN3, pH 2 at a concentration of 1.45 mg/ml and incubated at 55° C. for 24 h in an orbital shaker at 150 rpm. Human full length alpha synuclein (Alexotech) was dissolved in 150 mM NaCl, 1% v/v triton-x100 in PBS at a concentration of 2.2 mg/ml and incubated at 37° C. for 72 h in an orbital shaker at 250 rpm. Human tau P301S was incubated at 8 mg/ml with 4 mg/ml heparin (Sigma) in PBS, 30 mM 3-(N-morpholino) propanesulfonic acid (MOPS) (pH 7.2) at 37° C. for 72 h. […]
The binding of the BDB to amyloid was detected using a fluorometric assay. The amyloid binding was detected with the use of one of three fluorescent reporters solutions (30 μM BDB, cp33 peptide (Bonetto S et al. FASEB J. 2009; 23(2):575-85) or Thioflavin T (ThT) (Sigma) solution, in PBS). […] An Envision plate reader was set to excite at 450 nm and measure emission within the range 460-680 nm. The corresponding fluorescence signals of the reporter solutions were subtracted from the experimental data.

[2] = tested on: Fc receptor on IFNγ-activated U937 cells; assay: competition of BDB and cp33 peptide binding with unlabelled human IgG1 (FACS); type: cell-based; details: 1 μM BDB or cp33; human IgG1 above approximately 10 nM
[3] = tested on: macrophage-differentiated U937 cells; assay: phagocytosis of pHrodo-red labelled hLys amyloid (IncuCyte); type: cell-based, human
Experimental: Macrophage-differentiated U937 cells were co-incubated with pHrodo-red labelled amyloid, BDB, cp33 peptide, or control in order to determine the amount of amyloid phagocytosed under various conditions. hLys amyloid fibrils were generated as described above and were labelled with the pHrodo Red Microscale Labeling Kit (ThermoFisher) according to the manufacturers instruction except that unincorporated label was removed from the labelled amyloid by three rounds of centrifuging at 20,000×g in a microfuge, discarding the supernatant and resuspending the amyloid pellet in PBS. U937 cells were differentiated into macrophages in the presence of […] M-CSF (Peprotech), 1 μg/ml PMA (Sigma) and […] IFNγ (Thermo Fisher Scientific) for 4 days. 8×10^5 cells/condition were centrifuged for 3 min at 300 g and resuspended in 50 μl of 1 μM BDB, 1 μM cp33, 1 μM BDB with 0.1 μM labelled amyloid, 1 μM cp33 with 0.1 μM labelled amyloid, 0.1 μM labelled amyloid or a 1:100 PBS dilution of a pHrodo Red-labelled E. coli suspension (Thermo Fisher Scientific). […]
The plates were placed in an IncuCyte instrument and settings programmed to scan both in phase contrast and the red fluorescence channel hourly for 48 h. […] A metric of Total Red Object Area (μm^2/well) was used to quantify the appearance of pHrodo red fluorescence within cells. […]

[4] = tested on: U937 cells treated with IFNγ; assay: FACS binding to activated and non-activated U937 cells; type: cell-based; details: 10 μM BDB or 1 μM biotinylated human IgG1; 4° C., 1 h
Experimental: (§1) In order to determine the binding affinity of BDB to activated phagocytic cells, activated and non-activated U937 cells or murine primary macrophages were resuspended in the presence of BDB, biotinylated human IgG1, or PBS. The cells were then stained using either AF488-streptavidin conjugate, APC-Cy7 dead/live stain, or dead/live stain only and measured using fluorescence activated cell sorting (FACS).
(§2) Specifically, U937 cells were cultured in RPMI 1640+2 mM Glutamine+10% v/v foetal bovine serum (FCS) for 48 h in the absence or presence of […] human IFNγ (Thermo Fisher Scientific). Murine primary macrophages were cultured for 48 h in the absence or presence of 100 μg/ml LPS (Sigma). Aliquots of 5×10^5 cells were centrifuged 3 min at 300 g and resuspended either in 50 μl of 10 μM BDB, 1 μM biotinylated human IgG1 or PBS. Samples were incubated at 4° C. for 1 h and then centrifuged for 3 min at 100 g. Cells were resuspended in 50 μl of either AF488-streptavidin conjugate (Thermo Fisher Scientific, 1:500 in PBS) with APC-Cy7 dead/live stain (Thermo Fisher Scientific, 1:2000 in PBS) or dead/live stain only. Samples were incubated at 4° C. for 30 min and then centrifuged for 3 min at 100 g. Samples were washed with 200 μl cold PBS and resuspended in 250 μl PBS for analysis using a FACS Canto II, with 10^4 events recorded per condition. […]

[5] = tested on: IFNγ-activated U937 cells; assay: titrating BDB and IgG1 binding to IFNg stimulated U937 cells (FACS); type: cell-based, human; details: flow cytometry
Experimental: as §2, with “condition. Using FlowJo software, cells were visualised using forward and side scatter plots (FSC vs. SSC) and live cells were gated according to their live/dead staining. The percentage of live cells positive for AF488 signal was identified for each condition and plotted. The experiment was repeated three times and results present as the mean (+/−SD).” for “condition.”
The binding of BDB and IgG1 to IFNγ stimulated U937 cells was determined using the following methods. […]

[6] = tested on: IFNγ-activated U937 cells; assay: colocalization of BDB and AF647-labelled hLys amyloid to the surface of U937 cells (FACS); type: cell-based, human; details: 1 μM BDB or cp33
Experimental: IFNγ-activated U937 cells, a human macrophage cell line, were incubated with either BDB, cp33 peptide, or vehicle in the presence or absence of Alexa Fluor™ 647-labelled hLys amyloid in order to determine if the IFNγ-activated U937 cells have increased binding of amyloid in the presence of BDB or cp33 peptide as compared to vehicle.
Specifically, hLys were labelled with the fluorescent dye alexa 647, using the Alexa Fluor™ 647 Microscale Protein Labelling Kit (Thermo Fisher Scientific) according to the manufacturer's instructions with the following modifications: after protein labelling, the solution was made up to 500 μl with PBS and the sample centrifuged at 20800 for 40 min. The supernatant was discarded and the pellet washed with PBS, resuspended in 500 μl PBS and the centrifugation repeated. The final pellet was resuspended in 100 μl of PBS.
U937 cells were cultured in RPMI 1640+2 mM Glutamine+10% v/v FCS for 48 h in the presence of […] human IFNγ. Aliquots of 5×10^5 cells were centrifuged 3 min at 300 g and resuspended in 50 μl of either 1 μM BDB or cp33 and then incubated with either 1 or 0.1 μM AF647-hLyz. The staining and FACS analysis were performed as before, this time reporting the percentage of live cells positive for both AF488-streptavidin and AF647 h-Lyz.

[7] = tested on: murine primary macrophages treated with LPS; assay: FACS binding to activated and non-activated murine primary macrophages; type: cell-based; details: 10 μM BDB or 1 μM biotinylated human IgG1; 4° C., 1 h
Experimental: as §1, §2

Row | Compound | fluorescence in the presence of amyloid proteins [1] | displacement from binding to IFNγ-activated U937 cells by human IgG1 [2] | pHrodo red signal in the absence of amyloid ([3]; 1 μM BDB or 1 μM cp33, no amyloid) | phagocytosis of amyloid (pHrodo red signal, Total Red Object Area) ([3]; 1 μM BDB with 0.1 μM labelled amyloid, compared to cp33-amyloid or amyloid alone, hourly for 48 h) | binding to U937 cells treated with IFNγ versus non-activated (percentage of live cells positive for AF488 signal) [4] | IFNg-activated U937 cells bound ([5]; BDB 0.01-5 μM, biotinylated IgG1 0.01-1 μM) [%] | EC50 ([5]; read-out: half-maximal binding to IFNγ-activated U937 cells) [nM] | cell binding with or without amyloid [6] | IFNγ-activated U937 cells binding amyloid (live cells positive for both AF488-streptavidin and AF647 h-Lyz) ([6]; 1 or 0.1 μM AF647-hLyz) | binding to murine primary macrophages treated with LPS versus non-activated (percentage of live cells positive for AF488 signal) [7]
1 | Cc1ccc2c(c1)sc(-c1ccc(N(C)C)cc1)[n+]2C.[Cl-] [Tht, Thioflavin T, reference compound] | increased fluorescence |  |  |  |  |  |  |  |  | 
2 | BDB: conjugate of Compound 1 (carboxylic acid derivative of thioflavin T) added as terminal residue to biotinylated cyclic cp33 peptide derivative (SEQ ID NO:3) (AQVNSCLLLPNLLGCGDDK; not fully specified (bridges); cysteine pairing not given here; also: biotinylated, thioflavin T derivative (Compound 1) added as terminal residue, end not given here) | increased fluorescence | displaced | did not generate a signal | enhances the phagocytosis of amyloid | enhanced binding | ≤ 80 | ~200 | show cell binding irrespective of whether amyloid is present | Up to 14.4% | enhanced binding

— patent US11065336B2, “Conjugates for targeting and clearing aggregates” (MedImmune Limited, priority 2018, dated 2021)
